In patent US20230048888A1, “USE OF TRIAZOLOTRIAZINE DERIVATIVE IN TREATMENT OF DISEASES” (ZHEJIANG VIMGREEN PHARMACEUTICALS, LTD., priority 2019, published 2023):

Assay: Pharmacokinetics of Compound 40 and benzene sulfonate thereof in ICR mice, PO
Details: mouse, in vivo, PO 100 mg/kg (based on free base), 40% Hp-β-CD

Q: What does the source list for `Cn1nnc(-c2ccc(CCNc3nc(N)n4nc(-c5ccco5)nc4n3)cc2)n1` [Compound 40, N5-(4-(2-methyl-2H-tetrazol-5-yl)phenethyl)-2-(furan-2-yl)-[1,2,4]triazolo[1,5-a][1,3,5]triazine-5,7-diamine]?
A: AUC(0-t): 11900 ng·h/mL; Cmax: 2900 ng/mL; Tmax: 0.5 h; AUC(0-inf) (read-out: AUCINF—pred): 12100 ng·h/mL; half-life (read-out: T½ (converted)): 4.27 h
